Assay results reported in patent US20230000891A1, “HYBRID AMPHOTERICIN B DERIVATIVES WITH REDUCED TOXICITY” (The Board of Trustees of the University of Illinois, priority 2019, published 2023).
Values after ≈ are worked out from the molar mass of the structure shown. Like-named read-outs stand apart in the source and are kept apart here.

Key:
A. fumigatus 91 = assay: Minimum Inhibition Concentration (MIC), antifungal activity; assay type: cell-based
C. albicans [1] = assay: as above; assay type: cell-based
A. fumigatus 1100 = assay: as above; assay type: cell-based
C. krusei = assay: as above; assay type: cell-based
C. tropicalis = assay: as above; assay type: cell-based
A. fumigatus 1163 = assay: as above; assay type: cell-based
C. glabrata = assay: as above; assay type: cell-based
C. albicans [2] = assay: MIC with and without pre-complexation with ergosterol; assay type: cell-based; settings: sponge pre-complexed with ergosterol
Description: Anderson, T. M. et al., Nat Chem Biol 2014, 10 (5), 400-6. […] Davis, S. A., et al., Nat Chem Biol 2015, 11 (7), 481-7. To test whether C2′epiAmB primarily kills cells via the same sterol sponge mechanism, the C2′epiAmB sponge was similarly pre-complexed with ergosterol (FIG. 9). […] Thus, C2′epiAmB similarly kills yeast primarily via sterol binding, and, by extension, the new compounds targeted in this application are expected to have a similar barrier to fungal resistance that has been observed for the past 50+ years with AmB.

[3] = Intravenous toxicity in rats (BUN, ALT/AST, mortality); assay type: in vivo; settings: IV, 2, 10, and 17.5 mg/kg (highest dose tested)
Method: >100 mg of C2′epiAmB was prepared, formulated it as the corresponding deoxycholate complex, and evaluated this derivative head-to-head with AmB-deoxycholate for toxicity and efficacy in animal models. […] Alternatively, no elevations in BUN or ALT/AST and no mortality when rats were treated with IV injections of C2′epiAmB at doses of 2, 10, and 17.5 mg/kg (the highest dose that was tested) was observed.

human red blood cells = assay: Toxicity to human red blood cells; assay type: cell-based
C. albicans [4] = assay: Murine model of invasive candidiasis; assay type: in vivo, Neutropenic ICR/Swiss mice; settings: single IP injection
Description: Andes, D. et al., Antimicrobial agents and chemotherapy 2001, 45 (3), 922-6. In fact, the PD parameter that best correlates with outcome is Cmax−/MIC. The same was subsequently observed in a pulmonary model of invasive aspergillosis. Wiederhold, N. P. et al., Antimicrobial agents and chemotherapy 2006, 50 (2), 469-73.

[5] = tested on: 40 Aspergillus clinical isolates, including azole-resistant A. fumigatus, A. flavus, and A. terreus; assay: Antifungal testing, extended panel of 40 Aspergillus clinical isolates (Fungus Testing Laboratory, UT-San Antonio); assay type: cell-based
Description: (§1) In vitro antifungal activity of C2′epiAmB was compared with that of AmB against an extensive series of Candida and Aspergillus clinical isolates (FIG. 8A) at Evotec (Oxfordshire, UK). […] C2′epiAmB was also sent to the US national Fungus Testing Laboratory at UT-San Antonio for antifungal testing against an extended panel of especially challenging 40 Aspergillus clinical isolates, including azole-resistant A. fumigatus, A. flavus, and A. terreus (FIG. 8B). […] Recently, Steinbach and Burke directly compared the activity of AmB, AmBisome*, caspofungin, voriconazole, and C2′epiAmB against an even broader panel of clinically relevant invasive molds (FIG. 8C).

[6] = tested on: Candida and Aspergillus clinical isolates; assay: In vitro antifungal activity, clinical isolates (Evotec); assay type: cell-based; settings: many Candida and several Aspergillus strains
Description: as §1

[7] = tested on: clinically relevant invasive molds; assay: Antifungal activity, broader panel of clinically relevant invasive molds; assay type: cell-based; settings: many strains, including a pan-azole resistant strain (F14196)
Description: as §1

[8] = Cmax after IV administration; assay type: in vivo, rats; settings: C2′epiAmB at 17.5 mg/kg vs AmB at 1 mg/kg
yeast = assay: Activity against yeast / fungal cell killing; assay type: cell-based
[9] = Isothermal titration calorimetry (ITC) sterol binding; settings: within the detection limits of ITC
Description: This key discovery opened a path to the rational development of a non-toxic AmB variant. To probe its predicted role in sterol binding, the hydroxyl group was synthetically deleted at the C2′ position on the mycosamine appendage. […] Consistent with the sterol sponge model, this derivative retained good activity against yeast but, most importantly, was nontoxic to human red blood cells and primary (hREC) (FIG. 2B).
A practical 11-step synthesis of C2′epiAmB using a frontier site-selective acylation method was developed (FIG. 4). Wilcock, B. C. et al., Nat Chem 2012, 4 (12), 996-1003; Uno, B. E. A synthesis enabled understanding of Amphotericin B leading to derivatives with improved therapeutic indices. University of Illinois at Urbana-Champaign, 2014. The sterol binding and cell killing activities was then determined.

primary hREC = assay: Toxicity to primary human renal epithelial cells; assay type: cell-based
A. fumigatus = assay: In vitro antifungal activity, A. fumigatus strains (Evotec); assay type: cell-based
Description: as §1

C[C@@H]1[C@H](O)[C@@H](C)/C=C/C=C/C=C/C=C/C=C/C=C/C=C/[C@H](OC2O[C@H](C)[C@@H](O)[C@H](N)[C@@H]2O)CC2O[C@](O)(CC(O)CC(O)[C@H](O)CCC(O)CC(O)CC(=O)O[C@H]1C)CC(O)[C@H]2C(=O)O (stereo partly shown) [AmB, Amphotericin B]
MIC (A. fumigatus 91; Aspergillus fumigatus): 2 µM (≈ 1.85 µg/mL) | MIC (C. albicans [1]; Candida albicans): 0.5 µM (≈ 0.462 µg/mL) | MIC (A. fumigatus 1100; Aspergillus fumigatus): 2 µM (≈ 1.85 µg/mL) | MIC (C. krusei; Pichia kudriavzevii): 2 µM (≈ 1.85 µg/mL) | MIC (C. tropicalis; Candida tropicalis): 2 µM (≈ 1.85 µg/mL) | MIC (A. fumigatus 1163; Aspergillus fumigatus): 2 µM (≈ 1.85 µg/mL) | MIC (C. glabrata; Nakaseomyces glabratus): 0.5 µM (≈ 0.462 µg/mL) | change in potency upon ergosterol pre-complexation (C. albicans [2]): same reduction in potency

COC(=O)[C@H]1[C@@H]2C[C@@H](O[C@@H]3O[C@H](C)[C@@H](O)[C@H](N)[C@H]3O)/C=C/C=C/C=C/C=C/C=C/C=C/C=C/[C@H](C)[C@@H](O)[C@@H](C)[C@H](C)OC(=O)C[C@H](O)C[C@H](O)CC[C@@H](O)[C@H](O)C[C@H](O)C[C@](O)(C[C@@H]1O)O2 [C2'epiAmBME]
MIC (A. fumigatus 91): 4 µM (≈ 3.75 µg/mL) | MIC (C. albicans [1]): 1 µM (≈ 0.938 µg/mL) | MIC (A. fumigatus 1100): 4 µM (≈ 3.75 µg/mL) | MIC (C. krusei): 2 µM (≈ 1.88 µg/mL) | MIC (C. tropicalis): 2 µM (≈ 1.88 µg/mL) | MIC (A. fumigatus 1163): 4 µM (≈ 3.75 µg/mL) | MIC (C. glabrata): 4 µM (≈ 3.75 µg/mL)

C[C@@H]1[C@H](O)[C@@H](C)/C=C/C=C/C=C/C=C/C=C/C=C/C=C/[C@H](O[C@@H]2O[C@H](C)[C@@H](O)[C@H](N)[C@H]2O)C[C@@H]2O[C@](O)(C[C@@H](O)C[C@@H](O)[C@H](O)CC[C@@H](O)C[C@@H](O)CC(=O)O[C@H]1C)C[C@H](O)[C@H]2C(=O)O [C2′epiAmB]
ALT/AST [3]: no elevations | Blood Urea Nitrogen (BUN) [3]: no elevations | mortality [3]: no mortality | MIC (A. fumigatus 91): >64 µM | toxicity to human red blood cells (human red blood cells): non-toxic | fungal burden (C. albicans [4]; 16 mg/kg dose): outstanding reductions in fungal burden | efficacy (C. albicans [4]; deoxycholate complex, 1, 4, 8, or 16 mg/kg): dose-dependent efficacy | average potency relative to AmB (less potent) ([5]; average across all 40 strains): 5.6 fold | potency relative to AmB (less potent) ([5]; range over 40 Aspergillus clinical isolates): 2-16 times | in vitro antifungal activity [6]: good activity | MIC (C. albicans [1]): 4 µM (≈ 3.7 µg/mL) | MIC (A. fumigatus 1100): 32 µM (≈ 29.6 µg/mL) | antifungal potency [7]: good antifungal potency | Cmax relative to Cmax for AmB at 1 mg/kg [8]: > 16 fold | activity against yeast / fungal cells (yeast): kill fungal | cholesterol binding by ITC [9]: not (detectably) cholesterol | ergosterol binding by ITC [9]: bind ergosterol | toxicity to primary hREC (primary hREC): non-toxic | potency relative to AmB (less potent) (A. fumigatus; A. fumigatus strain AF91): > 32 times | potency relative to AmB (less potent) (A. fumigatus; A. fumigatus strains AF293, A1163, and ATC204305): 4 fold | MIC (C. krusei): 4 µM (≈ 3.7 µg/mL) | MIC (C. tropicalis): 4 µM (≈ 3.7 µg/mL) | MIC (A. fumigatus 1163): >64 µM | MIC (C. glabrata): 8 µM (≈ 7.39 µg/mL) | change in potency upon ergosterol pre-complexation (C. albicans [2]): same reduction in potency
